Results published in PubChem BioAssay (NCI).
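Abbreviation: GI50, concentration required for 50% inhibition of growth. TGI is the concentration that stops growth completely.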

Experiments:
Assay in all cases: DTP human tumour cell line panel, 384-well format
786-0 renal = tested on: 786-0 renal
A498 renal = tested on: A498 renal
A549 NSCLC = tested on: A549 NSCLC
ACHN renal = tested on: ACHN renal
BT-549 breast = tested on: BT-549 breast
CAKI-1 renal = tested on: CAKI-1 renal
CCRF-CEM leukemia = tested on: CCRF-CEM leukemia
COLO 205 colon = tested on: COLO 205 colon
DU-145 prostate = tested on: DU-145 prostate
EKVX NSCLC = tested on: EKVX NSCLC
HCC-2998 colon = tested on: HCC-2998 colon
HCT-15 colon = tested on: HCT-15 colon
HL-60(TB) leukemia = tested on: HL-60(TB) leukemia
HOP-62 NSCLC = tested on: HOP-62 NSCLC
HOP-92 NSCLC = tested on: HOP-92 NSCLC
HS 578T breast = tested on: HS 578T breast
HT29 colon = tested on: HT29 colon
IGROV1 ovarian = tested on: IGROV1 ovarian
KM12 colon = tested on: KM12 colon
M14 melanoma = tested on: M14 melanoma
MALME-3M melanoma = tested on: MALME-3M melanoma
MCF7 breast = tested on: MCF7 breast
MDA-MB-231 breast = tested on: MDA-MB-231 breast
MDA-MB-435 melanoma = tested on: MDA-MB-435 melanoma
MDA-MB-468 breast = tested on: MDA-MB-468 breast
MOLT-4 leukemia = tested on: MOLT-4 leukemia
NCI-H226 lung = tested on: NCI-H226 lung
NCI-H23 lung = tested on: NCI-H23 lung
NCI-H322M lung = tested on: NCI-H322M lung
NCI-H460 NSCLC = tested on: NCI-H460 NSCLC
NCI-H522 lung = tested on: NCI-H522 lung
NCI/ADR-RES ovarian = tested on: NCI/ADR-RES ovarian
OVCAR-3 ovarian = tested on: OVCAR-3 ovarian
OVCAR-4 ovarian = tested on: OVCAR-4 ovarian
OVCAR-5 ovarian = tested on: OVCAR-5 ovarian
OVCAR-8 ovarian = tested on: OVCAR-8 ovarian
PC-3 prostate = tested on: PC-3 prostate
RPMI-8226 leukemia = tested on: RPMI-8226 leukemia
RXF 393 renal = tested on: RXF 393 renal
SF-268 CNS = tested on: SF-268 CNS
SF-295 CNS = tested on: SF-295 CNS
SF-539 CNS = tested on: SF-539 CNS
SK-MEL-2 melanoma = tested on: SK-MEL-2 melanoma
SK-MEL-28 melanoma = tested on: SK-MEL-28 melanoma
SK-MEL-5 melanoma = tested on: SK-MEL-5 melanoma
SK-OV-3 ovarian = tested on: SK-OV-3 ovarian
SN12C renal = tested on: SN12C renal
SNB-19 CNS = tested on: SNB-19 CNS
SR leukemia = tested on: SR leukemia
SW-620 colon = tested on: SW-620 colon
T-47D breast = tested on: T-47D breast
TK-10 renal = tested on: TK-10 renal
U251 glioblastoma = tested on: U251 glioblastoma
UACC-257 melanoma = tested on: UACC-257 melanoma
UACC-62 melanoma = tested on: UACC-62 melanoma

`O=C(O)C(=O)CBr` showed a GI50 (786-0 renal) greater than 100 µM, a TGI (786-0 renal) greater than 100 µM and a GI50 (A498 renal) greater than 100 µM. For the same compound, the TGI (A498 renal) was greater than 100 µM, the GI50 (A549 NSCLC) was greater than 100 µM and the TGI (A549 NSCLC) was greater than 100 µM. It also gave a GI50 (ACHN renal) greater than 100 µM, a TGI (ACHN renal) greater than 100 µM and a GI50 (BT-549 breast) greater than 100 µM. For the same compound, the TGI (BT-549 breast) was greater than 100 µM, the GI50 (CAKI-1 renal) was greater than 100 µM and the TGI (CAKI-1 renal) was greater than 100 µM. The GI50 (CCRF-CEM leukemia) was 43.2 µM, the TGI (CCRF-CEM leukemia) was greater than 100 µM and the GI50 (COLO 205 colon) was greater than 100 µM. It also gave a TGI (COLO 205 colon) greater than 100 µM, a GI50 (DU-145 prostate) greater than 100 µM and a TGI (DU-145 prostate) greater than 100 µM. It also gave a GI50 (EKVX NSCLC) greater than 100 µM, a TGI (EKVX NSCLC) greater than 100 µM and a GI50 (HCC-2998 colon) greater than 100 µM. The TGI (HCC-2998 colon) was greater than 100 µM, the GI50 (HCT-15 colon) was greater than 100 µM and the TGI (HCT-15 colon) was greater than 100 µM. The GI50 (HL-60(TB) leukemia) was 23.9 µM, the TGI (HL-60(TB) leukemia) was 45.3 µM and the GI50 (HOP-62 NSCLC) was 34.7 µM. The TGI (HOP-62 NSCLC) was greater than 100 µM, the GI50 (HOP-92 NSCLC) was greater than 100 µM and the TGI (HOP-92 NSCLC) was greater than 100 µM. The GI50 (HS 578T breast) was greater than 100 µM, the TGI (HS 578T breast) was greater than 100 µM and the GI50 (HT29 colon) was greater than 100 µM. It also gave a TGI (HT29 colon) greater than 100 µM, a GI50 (IGROV1 ovarian) greater than 100 µM and a TGI (IGROV1 ovarian) greater than 100 µM. The GI50 (KM12 colon) was greater than 100 µM, the TGI (KM12 colon) was greater than 100 µM and the GI50 (M14 melanoma) was greater than 100 µM. For the same compound, the TGI (M14 melanoma) was greater than 100 µM, the GI50 (MALME-3M melanoma) was greater than 100 µM and the TGI (MALME-3M melanoma) was greater than 100 µM. For the same compound, the GI50 (MCF7 breast) was greater than 100 µM, the TGI (MCF7 breast) was greater than 100 µM and the GI50 (MDA-MB-231 breast) was greater than 100 µM. For the same compound, the TGI (MDA-MB-231 breast) was greater than 100 µM, the GI50 (MDA-MB-435 melanoma) was greater than 100 µM and the TGI (MDA-MB-435 melanoma) was greater than 100 µM. The GI50 (MDA-MB-468 breast) was 24.7 µM, the TGI (MDA-MB-468 breast) was 56.8 µM and the GI50 (MOLT-4 leukemia) was greater than 100 µM. It also gave a TGI (MOLT-4 leukemia) greater than 100 µM, a GI50 (NCI-H226 lung) greater than 100 µM and a TGI (NCI-H226 lung) greater than 100 µM. It also gave a GI50 (NCI-H23 lung) of 55.7 µM, a TGI (NCI-H23 lung) greater than 100 µM and a GI50 (NCI-H322M lung) greater than 100 µM. The TGI (NCI-H322M lung) was greater than 100 µM, the GI50 (NCI-H460 NSCLC) was greater than 100 µM and the TGI (NCI-H460 NSCLC) was greater than 100 µM. For the same compound, the GI50 (NCI-H522 lung) was 23.5 µM, the TGI (NCI-H522 lung) was 47.8 µM and the GI50 (NCI/ADR-RES ovarian) was greater than 100 µM. It also gave a TGI (NCI/ADR-RES ovarian) greater than 100 µM, a GI50 (OVCAR-3 ovarian) greater than 100 µM and a TGI (OVCAR-3 ovarian) greater than 100 µM. It also gave a GI50 (OVCAR-4 ovarian) of 32.3 µM, a TGI (OVCAR-4 ovarian) greater than 100 µM and a GI50 (OVCAR-5 ovarian) greater than 100 µM. The TGI (OVCAR-5 ovarian) was greater than 100 µM, the GI50 (OVCAR-8 ovarian) was greater than 100 µM and the TGI (OVCAR-8 ovarian) was greater than 100 µM. The GI50 (PC-3 prostate) was greater than 100 µM, the TGI (PC-3 prostate) was greater than 100 µM and the GI50 (RPMI-8226 leukemia) was greater than 100 µM. It also gave a TGI (RPMI-8226 leukemia) greater than 100 µM, a GI50 (RXF 393 renal) of 22.5 µM and a TGI (RXF 393 renal) of 57.1 µM. The GI50 (SF-268 CNS) was greater than 100 µM, the TGI (SF-268 CNS) was greater than 100 µM and the GI50 (SF-295 CNS) was greater than 100 µM. The TGI (SF-295 CNS) was greater than 100 µM, the GI50 (SF-539 CNS) was greater than 100 µM and the TGI (SF-539 CNS) was greater than 100 µM. For the same compound, the GI50 (SK-MEL-2 melanoma) was greater than 100 µM, the TGI (SK-MEL-2 melanoma) was greater than 100 µM and the GI50 (SK-MEL-28 melanoma) was greater than 100 µM. The TGI (SK-MEL-28 melanoma) was greater than 100 µM, the GI50 (SK-MEL-5 melanoma) was greater than 100 µM and the TGI (SK-MEL-5 melanoma) was greater than 100 µM. It also gave a GI50 (SK-OV-3 ovarian) greater than 100 µM, a TGI (SK-OV-3 ovarian) greater than 100 µM and a GI50 (SN12C renal) greater than 100 µM. The TGI (SN12C renal) was greater than 100 µM, the GI50 (SNB-19 CNS) was greater than 100 µM and the TGI (SNB-19 CNS) was greater than 100 µM. For the same compound, the GI50 (SR leukemia) was greater than 100 µM, the TGI (SR leukemia) was greater than 100 µM and the GI50 (SW-620 colon) was greater than 100 µM. For the same compound, the TGI (SW-620 colon) was greater than 100 µM, the GI50 (T-47D breast) was greater than 100 µM and the TGI (T-47D breast) was greater than 100 µM. For the same compound, the GI50 (TK-10 renal) was greater than 100 µM, the TGI (TK-10 renal) was greater than 100 µM and the GI50 (U251 glioblastoma) was greater than 100 µM. The TGI (U251 glioblastoma) was greater than 100 µM, the GI50 (UACC-257 melanoma) was greater than 100 µM and the TGI (UACC-257 melanoma) was greater than 100 µM. It also gave a GI50 (UACC-62 melanoma) greater than 100 µM and a TGI (UACC-62 melanoma) greater than 100 µM.
